Test results from patent publication EP4635949A1 (Jiangsu NHWA Pharmaceutical Co., Ltd, priority 2022, dated 2024).
Like-named read-outs stand apart in the source and are kept apart here.

How the values were obtained:
OX1 receptor = target: T1, OX1 receptor (Homo sapiens, UniProt O43613); assay: Orexin target function test (Cisbio HTRF IP-one), CHO-K1-OX1 cells, antagonism of EC80 Orexin A; format: cell-based
T1 construct: host or cells: CHO-K1
T1 sequence (O43613 1-425): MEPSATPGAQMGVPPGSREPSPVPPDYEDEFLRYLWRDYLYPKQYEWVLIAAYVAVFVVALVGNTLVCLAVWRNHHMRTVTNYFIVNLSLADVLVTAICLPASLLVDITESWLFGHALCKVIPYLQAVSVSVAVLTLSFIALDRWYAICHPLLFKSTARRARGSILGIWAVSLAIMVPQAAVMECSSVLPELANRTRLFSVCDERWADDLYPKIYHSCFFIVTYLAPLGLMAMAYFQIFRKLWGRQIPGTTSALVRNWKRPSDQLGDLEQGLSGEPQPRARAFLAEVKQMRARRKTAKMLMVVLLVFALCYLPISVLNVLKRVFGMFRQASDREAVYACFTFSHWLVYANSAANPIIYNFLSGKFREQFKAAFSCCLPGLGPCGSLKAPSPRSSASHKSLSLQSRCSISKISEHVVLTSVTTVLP
Method: (§1) Using Cisbio HTRF IP-one kit to detect the changes in IP-one concentration of orexin receptor (OX1/OX2) signaling pathway by microplate reader, and calculating the IC50 value of the compound to evaluate the antagonistic effect of the compound on OX1 and OX2 receptors.
(§2) The cells were centrifuged at 1000 rpm for 5 minutes and the supernatant was discarded. 3 mL of PBS was added, and gently blown with a pipette to mix. After centrifugation at 1000 rpm for 5 minutes again, the supernatant was discarded. […] Based on the antagonistic effect values of the compound samples at different concentrations, the GraphPad Prism software was used to fit the orexin receptor antagonism curve of the compound samples and calculate the IC50.

OX2 receptor = target: T2, OX2 receptor (Homo sapiens, UniProt O43614); assay: Orexin target function test (Cisbio HTRF IP-one), CHO-K1-OX2 cells, antagonism of EC80 Orexin 2 receptor agonist; format: cell-based
T2 construct: host or cells: CHO-K1
T2 sequence (O43614 1-444): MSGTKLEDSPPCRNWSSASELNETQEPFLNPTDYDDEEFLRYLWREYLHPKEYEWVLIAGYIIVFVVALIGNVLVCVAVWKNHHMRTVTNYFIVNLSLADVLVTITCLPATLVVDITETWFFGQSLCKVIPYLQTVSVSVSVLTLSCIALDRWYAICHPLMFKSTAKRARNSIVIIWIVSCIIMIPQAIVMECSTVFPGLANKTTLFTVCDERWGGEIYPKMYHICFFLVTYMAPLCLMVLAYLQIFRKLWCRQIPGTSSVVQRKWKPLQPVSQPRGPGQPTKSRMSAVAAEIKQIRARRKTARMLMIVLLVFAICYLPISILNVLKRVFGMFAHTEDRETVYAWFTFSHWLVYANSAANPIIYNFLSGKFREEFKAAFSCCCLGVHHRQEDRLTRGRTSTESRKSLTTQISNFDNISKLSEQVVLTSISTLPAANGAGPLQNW
Method: as §1, §2

in vivo = conditions: male, SD, rat, plasma
[1] = CHO-K1-OX1 cells, IP-one, read-out: hOXIR IC50
[2] = CHO-K1-OX2 cells, IP-one, read-out: hOX2R IC50
[3] = ratio of OX1R IC50 to OX2R IC50

Structure (SMILES)	IC50 (OX1 receptor; [1]) [nM]	IC50 (OX2 receptor; [2]) [nM]	Selectivity (OX2 receptor; [3])	IC50 (OX1 receptor) [nM]	IC50 (OX2 receptor) [nM]	other results
CCc1c(C)nc(C2=CC3CN(C(=O)c4c(F)cccc4-n4nccn4)CC3C2)nc1C (centres unmarked) [Compound 11, (5-(5-ethyl-4,6-dimethylpyrimidin-2-yl)-3,3a,4,6a-tetrahydrocyclopenta[c]pyrrol-2(1H)-yl)(2-fluoro-6-(2H-1,2,3-triazol-2-yl)phenyl)methanone]	1950	27	72			
COc1cnc(OC)c(C2=CC3CN(C(=O)c4ccc(F)cc4-n4nccn4)CC3C2)n1 (centres unmarked) [Compound 50, [5-(3,6-dimethoxypyrazin-2-yl)-3,3a,4,6a-tetrahydrocyclopenta[c]pyrrol-2(1H)-yl][4-fluoro-2-(2H-1,2,3-triazol-2-yl)phenyl]methanone]			134	3610	27	
COc1ncc(C2CC2)nc1C1=CC2CN(C(=O)c3ccc(F)cc3-n3nccn3)CC2C1 (centres unmarked) [Compound 55, [5-(6-cyclopropyl-3-methoxypyrazin-2-yl)-3,3a,4,6a-tetrahydrocyclopenta[c]pyrrol-2(1H)-yl][4-fluoro-2-(2H-1,2,3-triazol-2-yl)phenyl]methanone]			67	1900	28	
[2H]C([2H])([2H])c1nc(C2=CC3CN(C(=O)c4ccc(F)cc4-n4nccn4)CC3C2)nc(C([2H])([2H])[2H])c1F (centres unmarked) [Compound 30, (4-fluoro-2-(2H-1,2,3-triazol-2-yl)phenyl)(5-(5-fluoro-4,6-bis(methyl-d3)pyrimidin-2-yl)-3,3a,4,6a-tetrahydrocyclopenta[c]pyrrol-2(1H)-yl)methanone]			186	3920	21	
[2H]C([2H])([2H])Oc1cc(-n2nccn2)c(C(=O)N2CC3C=C(c4nc(C)c(F)c(C)n4)CC3C2)cn1 (centres unmarked) [Compound 34, (5-(5-fluoro-4,6-dimethylpyrimidin-2-yl)-3,3a,4,6a-tetrahydrocyclopenta[c]pyrrol-2(1H)-yl)(6-(methoxy-d3)-4-(2H-1,2,3-triazol-2-yl)pyridin-3-yl)methanone]				5000	24	Selectivity (OX2 receptor): 208
Cc1nc(C2=CC3CN(C(=O)c4c(F)cccc4-n4nccn4)CC3C2)nc2ccoc12 (centres unmarked) [Compound 18, (2-fluoro-6-(2H-1,2,3-triazol-2-yl)phenyl)(5-(4-methylfuro[3,2-d]pyrimidin-2-yl)-3,3a,4,6a-tetrahydrocyclopenta[c]pyrrol-2(1H)-yl)methanone]			99	2310	23.4	
Cc1nc(C2=CC3CN(C(=O)c4c(F)cccc4-n4nccn4)CC3C2)nc(C(C)(C)O)c1F (centres unmarked) [Compound 37, (5-(5-fluoro-4-(2-hydroxypropan-2-yl)-6-methylpyrimidin-2-yl)-3,3a,4,6a-tetrahydrocyclopenta[c]pyrrol-2(1H)-yl)(2-fluoro-6-(2H-1,2,3-triazol-2-yl)phenyl)methanone]						AUC(0-t) (in vivo; iv, 1 mg/kg): 626 ng·h/mL; Cmax (in vivo; iv, 1 mg/kg): 980 ng/mL; AUC(0-t) (in vivo; po, 30 mg/kg): 16800 ng·h/mL; Cmax (in vivo; po, 30 mg/kg): 9240 ng/mL; bioavailability (in vivo; po, 30 mg/kg): 89.3%
Cc1nc(C2=CC3CN(C(=O)c4c(F)cccc4-n4nccn4)CC3C2)nc2c1OCC2 (centres unmarked) [Compound 19, (2-fluoro-6-(2H-1,2,3-triazol-2-yl)phenyl)(5-(4-methyl-6,7-dihydrofuro[3,2-d]pyrimidin-2-yl)-3,3a,4,6a-tetrahydrocyclopenta[c]pyrrol-2(1H)-yl)methanone]	2480	18	138			
COc1nc(C2=CC3CN(C(=O)c4ccccc4-n4nccn4)CC3C2)nc(C)c1F (centres unmarked) [Compound 27, (2-(2H-1,2,3-triazol-2-yl)phenyl)(5-(5-fluoro-4-methoxy-6-methylpyrimidin-2-yl)-3,3a,4,6a-tetrahydrocyclopenta[c]pyrrol-2(1H)-yl)methanone]	1680	20	84			
[2H]C([2H])([2H])c1cnc(OC)c(C2=CC3CN(C(=O)c4ccc(OC)cc4-n4nccn4)CC3C2)n1 (centres unmarked) [Compound 56, [4-methoxy-2-(2H-1,2,3-triazol-2-yl)phenyl][5-[3-methoxy-6-(methyl-d3)pyrazin-2-yl]-3,3a,4,6a-tetrahydrocyclopentyl[c]pyrrol-2(1H)-yl]methanone]	2300	16	144			
Cc1nc(C2=CC3CN(C(=O)c4c(F)cccc4-n4nccn4)CC3C2)nc2c1CCCC2 (centres unmarked) [Compound 14, (2-fluoro-6-(2H-1,2,3-triazol-2-yl)phenyl)(5-(4-methyl-5,6,7,8-tetrahydroquinazolin-2-yl)-3,3a, 4,6a-tetrahydrocyclopenta[c]pyrrol-2(1H)-yl)methanone]	2750	24	114			
COc1ncc(C)nc1C1=CC2CN(C(=O)c3c(F)cccc3-c3ncccn3)CC2C1 (centres unmarked) [Compound 43, (2-fluoro-6-(pyrimidin-2-yl)phenyl)(5-(3-methoxy-6-methylpyrazin-2-yl)-3,3a,4,6a-tetrahydrocyclopenta[c]pyrrol-2(1H)-yl)methanone]	2100	28	75			
Cc1nc(C2=CC3CN(C(=O)c4c(F)cccc4-n4nccn4)CC3C2)nc2c1COCC2 (centres unmarked) [Compound 16, (2-fluoro-6-(2H-1,2,3-triazol-2-yl)phenyl)(5-(4-methyl-7,8-dihydro-5H-pyrano[4,3-d]pyrimidin-2-yl)-3,3a,4,6a-tetrahydrocyclopenta[c]pyrrol-2(1H)-yl)methanone]	1880	20	94			
[2H]C([2H])([2H])Oc1ncc(C)nc1C1=CC2CN(C(=O)c3ccc(OC)cc3-n3nccn3)CC2C1 (centres unmarked) [Compound 58, [4-methoxy-2-(2H-1,2,3-triazol-2-yl)phenyl][5-[3-(methoxy-d3)-6-methylpyrazin-2-yl]-3,3a,4,6a-tetrahydrocyclopentyl[c]pyrrol-2(1H)-yl]methanone]	1980	24	83			
[2H]C([2H])([2H])Oc1ccc(C(=O)N2CC3C=C(c4nc(C)cnc4OC)CC3C2)c(-n2nccn2)c1 (centres unmarked) [Compound 57, [5-(3-methoxy-6-methylpyrazin-2-yl)-3,3a,4,6a-tetrahydrocyclopenta[c]pyrrol-2(1H)-yl][4-(methoxy-d3)-2-(2H-1,2,3-triazol-2-yl)phenyl]methanone]	3160	18	176			
Cc1nc(C2=CC3CN(C(=O)c4c(F)cccc4-n4nccn4)CC3C2)nc(C)c1CF (centres unmarked) [Compound 38, (2-fluoro-6-(2H-1,2,3-triazol-2-yl)phenyl)(5-(5-(fluoromethyl)-4,6-dimethylpyrimidin-2-yl)-3,3a,4,6a-tetrahydrocyclopenta[c]pyrrol-2(1H)-yl)methanone]	1800	22	82			
Cc1nc(C2=CC3CN(C(=O)c4c(F)cccc4-c4cc[nH]n4)CC3C2)nc(C)c1F (centres unmarked) [Compound 29, (5-(5-fluoro-4,6-dimethylpyrimidin-2-yl)-3,3a,4,6a-tetrahydrocyclopenta[c]pyrrol-2(1H)-yl)(2-fluoro-6-(1H-pyrazol-3-yl)phenyl)methanone]	1280	20	64			
[2H]C([2H])([2H])Oc1ccc(C(=O)N2CC3C=C(c4nc(C)c(F)c(C)n4)CC3C2)c(-n2nccn2)c1 (centres unmarked) [Compound 36, (5-(5-fluoro-4,6-dimethylpyrimidin-2-yl)-3,3a,4,6a-tetrahydrocyclopenta[c]pyrrol-2(1H)-yl)(4-(methoxy-d3)-2-(2H-1,2,3-triazol-2-yl)phenyl)methanone]				3100	18	Selectivity (OX2 receptor): 172
COc1ccc(C(=O)N2C[C@H]3CC(c4nc(Cl)cnc4OC)=C[C@H]3C2)c(-n2nccn2)c1 (relative stereo) [Compound 54]	2600	22	118			
COc1ccc(C(=O)N2CC3C=C(c4nc(OC)cnc4OC)CC3C2)c(-n2nccn2)c1 (centres unmarked) [Compound 53, [5-(3,6-dimethoxypyrazin-2-yl)-3,3a,4,6a-tetrahydrocyclopenta[c]pyrrol-2(1H)-yl][4-methoxy-2-(2H-1,2,3-triazol-2-yl)phenyl]methanone]	2860	32	89			
